{"source": "patent US8940757B2", "about": "“Prasugrel in micronized, crystalline form and pharmaceutical composition thereof” (ratiopharm GmbH, priority 2010, dated 2015)", "key": {"[1]": {"test": "Solubility in water", "format": "physicochemical", "details": "free base", "method": "Prasugrel is administered orally as platelet aggregation inhibitor. The problem here is that Prasugrel is a sparingly soluble active ingredient."}, "[2]": {"test": "pH-dependent degradation", "format": "physicochemical", "details": "pH values of <3, after 2 hours", "method": "In addition, Prasugrel also has a strongly pH-dependent degradation. With pH values of <3 a degradation of more than 1% is observed already after 2 hours. This limits the potential excipients in the preparation of pharmaceutical formulations."}}}
{"smiles": "CC(=O)Oc1cc2c(s1)CCN(C(C(=O)C1CC1)c1ccccc1F)C2", "note": "(stereo not drawn) [Prasugrel, 2-acetoxy-5-(α-cyclopropylcarbonyl-2-fluorobenzyl)-4,5,6,7-tetrahydrothieno[3,2-c]pyridine]", "values": [{"measurement": "solubility", "setting": "[1]", "result": 57, "unit": "µg/mL"}, {"measurement": "degradation", "setting": "[2]", "result": "more than 1%"}]}
